{"source": "patent US11464227B2", "about": "“Enhanced microbial and biorational control of nematode pests of plants” (ADVANCED BIOLOGICAL MARKETING, INC., priority 2017, dated 2022)", "system": "plant", "experiment": "Plant growth and disease resistance induction by Trichoderma metabolite", "assay_type": "in vivo", "settings": "at very low concentrations", "from_the_text": "These endophytic microorganisms frequently are fully symbiotic with plants (Harman, Howell, et al., 2004). These endophytic symbionts have abilities to induce multiple beneficial effects in plants, including induced resistance to diseases and potentially other pests; resistance to abiotic stresses such as drought, salt and flooding; improved efficiency of uses of nitrogen and other plant nutrients; enhancement of seed germination and seedling vigor; and enhanced plant growth and development. There are numerous diverse genera of microbes that induce at least most of these changes in plant performance, including mycorrhizae, plant growth promoting rhizobacteria, and Basidomycetous fungi in the Sebaciles such as Piriformaspora indica. These organisms have an endophytic versus a plant pathogenic life style (Shoresh, Mastouri, et al., 2010) typical of numerous other plant-associated microorganisms. The systemic changes in plant gene expression are presumed to be induced by the production of specific triggering metabolites from these different organisms. […] (Cawoy, Mariutto, et al., 2014, Debois, Fernandez, et al., 2015), and hydrophobic proteins (Djonovic, Vargas, et al., 2007, Ruoccco, Lanzuise, et al., 2015) and volatile and nonvolatile metabolites from Trichoderma […], et al., 2008)."}
{"smiles": "C=CC(O)CCCCC", "note": "(centres unmarked) [1-octene-3-ol]", "values": [{"measurement": "induction of plant disease resistance", "value": "highly effective"}, {"measurement": "plant growth", "value": "strongly enhances"}]}
